Laboratory results from US10793563B2, “GCN2 inhibitors and uses thereof” (Merck Patent GmbH, priority 2018, dated 2020).

The compounds below were run against GCN2 kinase (Homo sapiens (Human), UniProt Q9P2K8) (assay: GCN2 Enzyme Inhibition Assay (Transcreener ADP2 fluorescence polarization)). Conditions: 280 μM ATP, 200 μM (RS)7 peptide, 4 nM GCN2, 25° C.
Format: biochemical
Outline: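 Transcreener ADP2 fluorescence polarization detection of ADP from 4 nM GCN2 with (RS)7 substrate in 25 mM Tris-HCl pH 7.5, 50 mM NaCl, 10 mM MgCl2, 1 mM DTT. Compound pre-incubated with enzyme 10 min at 25 °C; reaction started by ATP, run 1 h at 25 °C. IC50 and Ki(app) by tight-binding fit.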

Sequence of GCN2 kinase (Q9P2K8 whole entry): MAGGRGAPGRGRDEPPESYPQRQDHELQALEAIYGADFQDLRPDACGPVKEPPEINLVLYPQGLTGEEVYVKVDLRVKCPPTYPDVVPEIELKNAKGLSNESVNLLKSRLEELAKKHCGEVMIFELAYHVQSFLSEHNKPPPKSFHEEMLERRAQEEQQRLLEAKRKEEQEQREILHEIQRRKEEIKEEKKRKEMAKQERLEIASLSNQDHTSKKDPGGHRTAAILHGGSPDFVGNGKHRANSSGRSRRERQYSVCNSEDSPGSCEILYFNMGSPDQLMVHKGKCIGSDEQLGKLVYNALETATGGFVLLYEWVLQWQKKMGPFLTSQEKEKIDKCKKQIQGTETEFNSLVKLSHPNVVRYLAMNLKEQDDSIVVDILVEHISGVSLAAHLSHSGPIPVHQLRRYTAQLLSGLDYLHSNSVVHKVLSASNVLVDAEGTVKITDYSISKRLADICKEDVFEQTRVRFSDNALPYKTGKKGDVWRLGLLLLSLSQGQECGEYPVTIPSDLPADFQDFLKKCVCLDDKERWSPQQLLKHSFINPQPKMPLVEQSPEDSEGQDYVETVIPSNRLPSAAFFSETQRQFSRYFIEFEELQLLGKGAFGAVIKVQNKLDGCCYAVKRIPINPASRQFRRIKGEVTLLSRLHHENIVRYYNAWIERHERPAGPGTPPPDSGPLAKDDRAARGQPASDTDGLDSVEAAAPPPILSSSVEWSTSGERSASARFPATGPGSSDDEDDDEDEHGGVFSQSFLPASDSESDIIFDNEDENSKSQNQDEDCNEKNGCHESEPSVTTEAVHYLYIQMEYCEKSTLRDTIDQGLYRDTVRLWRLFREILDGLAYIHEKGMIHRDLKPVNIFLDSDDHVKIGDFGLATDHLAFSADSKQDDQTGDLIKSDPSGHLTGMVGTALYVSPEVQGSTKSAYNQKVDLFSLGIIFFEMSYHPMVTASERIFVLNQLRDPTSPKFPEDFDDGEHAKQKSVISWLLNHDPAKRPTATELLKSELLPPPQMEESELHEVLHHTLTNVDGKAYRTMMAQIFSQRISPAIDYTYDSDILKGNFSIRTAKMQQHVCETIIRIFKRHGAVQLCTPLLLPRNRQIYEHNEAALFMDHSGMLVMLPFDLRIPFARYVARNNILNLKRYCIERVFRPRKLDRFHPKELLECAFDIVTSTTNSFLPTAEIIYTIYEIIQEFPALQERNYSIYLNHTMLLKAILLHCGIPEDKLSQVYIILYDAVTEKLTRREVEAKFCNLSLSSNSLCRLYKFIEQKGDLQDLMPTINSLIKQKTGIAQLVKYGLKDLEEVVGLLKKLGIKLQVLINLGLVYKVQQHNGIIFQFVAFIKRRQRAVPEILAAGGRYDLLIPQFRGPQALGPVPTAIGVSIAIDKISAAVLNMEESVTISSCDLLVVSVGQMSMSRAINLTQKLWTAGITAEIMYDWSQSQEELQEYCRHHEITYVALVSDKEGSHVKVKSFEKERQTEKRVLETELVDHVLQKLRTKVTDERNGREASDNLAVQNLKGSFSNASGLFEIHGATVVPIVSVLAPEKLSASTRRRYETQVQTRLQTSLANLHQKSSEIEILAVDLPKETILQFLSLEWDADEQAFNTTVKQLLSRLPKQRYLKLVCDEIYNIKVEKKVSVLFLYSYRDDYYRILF

IC50 [nM] | SMILES
10 to 100 | Cc1noc([C@@H]2CN(c3ccnc(-c4cnc5ccc(C(F)F)cn45)n3)C[C@H](C)O2)n1 [I-498, (2S,6S)-4-(2-(6-(difluoromethyl)imidazo[1,2-a]pyridin-3-yl)pyrimidin-4-yl)-2-methyl-6-(3-methyl-1,2,4-oxadiazol-5-yl)morpholine]
100 to 1000 | C[C@H]1[C@@H](c2cn[nH]c2)NCCN1c1ccnc(-c2cnc3ccc(C(F)(F)F)cn23)n1 [I-534, 3-(4-((2 S,3R)-2-methyl-3-(1H-pyrazol-4-yl)piperazin-1-yl)pyrimidin-2-yl)-6-(trifluoromethyl)imidazo[1,2-a]pyridine]
100 to 1000 | C[C@H]1[C@H](c2cn[nH]c2)NCCN1c1ccnc(-c2cnc3ccc(C(F)(F)F)cn23)n1 [I-535, 3-(4-((2S,3 S)-2-methyl-3-(1H-pyrazol-4-yl)piperazin-1-yl)pyrimidin-2-yl)-6-(trifluoromethyl)imidazo[1,2-a]pyridine]
10 to 100 | Cc1[nH]ncc1[C@H]1CN(c2ccnc(-c3cnc4cc(F)c(Cl)cn34)n2)C[C@H](C)O1 [I-539, (2S,6S)-4-(2-(6-chloro-7-fluoroimidazo[1,2-a]pyridin-3-yl)pyrimidin-4-yl)-2-methyl-6-(5-methyl-1H-pyrazol-4-yl)morpholine]

The remaining lines, values behind:

SMILES | IC50 [nM]
CS(=O)(=O)NCC1NCCN(c2ccnc(-c3cnc4ccc(C(F)F)cn34)n2)C1C(F)(F)F (centres unmarked) [I-496, N-((4-(2-(6-(difluoromethyl)imidazo[1,2-a]pyridin-3-yl)pyrimidin-4-yl)-3-(trifluoromethyl)piperazin-2-yl)methyl)methanesulfonamide] | 100 to 1000
Cc1noc([C@H]2CN(c3ccnc(-c4cnc5ccc(C(F)F)cn45)n3)C[C@@H](C)O2)n1 [I-497, (2R,6R)-4-(2-(6-(difluoromethyl)imidazo[1,2-a]pyridin-3-yl)pyrimidin-4-yl)-2-methyl-6-(3-methyl-1,2,4-oxadiazol-5-yl)morpholine] | 100 to 1000
CC1(O)CC(C(=O)N2CCN(c3ccnc(-c4cnc5ccc(C(F)(F)F)cn45)n3)CC2c2cn[nH]c2)C1 (centres unmarked) [I-509, (2-(1H-pyrazol-4-yl)-4-(2-(6-(trifluoromethyl)imidazo[1,2-a]pyridin-3-yl)pyrimidin-4-yl)piperazin-1-yl)(3-hydroxy-3-methylcyclobutyl)methanone] | 100 to 1000
C[C@@H]1CN(c2ccnc(-c3cnc4ccc(C(F)(F)F)cn34)n2)C[C@H](C)N1C(=O)c1cc2n(n1)CCOC2 [I-513, (6,7-dihydro-4H-pyrazolo[5,1-c][1,4]oxazin-2-yl)(cis-2,6-dimethyl-4-(2-(6-(trifluoromethyl)imidazo[1,2-a]pyridin-3-yl)pyrimidin-4-yl)piperazin-1-yl)methanone] | 100 to 1000
CC(C)(O)C(=O)N1CCN(c2ccnc(-c3cnc4ccc(C(F)(F)F)cn34)n2)CC1c1cn[nH]c1 (centres unmarked) [I-514, 1-(2-(1H-pyrazol-4-yl)-4-(2-(6-(trifluoromethyl)imidazo[1,2-a]pyridin-3-yl)pyrimidin-4-yl)piperazin-1-yl)-2-hydroxy-2-methylpropan-1-one] | 100 to 1000
Cc1oncc1C(=O)N1CCN(c2ccnc(-c3cnc4ccc(C(F)(F)F)cn34)n2)CC1c1cn[nH]c1 (centres unmarked) [I-515, (2-(1H-pyrazol-4-yl)-4-(2-(6-(trifluoromethyl)imidazo[1,2-a]pyridin-3-yl)pyrimidin-4-yl)piperazin-1-yl)(5-methylisoxazol-4-yl)methanone] | 100 to 1000
Cc1nonc1C(=O)N1CCN(c2ccnc(-c3cnc4ccc(C(F)(F)F)cn34)n2)CC1c1cn[nH]c1 (centres unmarked) [I-518, (2-(1H-pyrazol-4-yl)-4-(2-(6-(trifluoromethyl)imidazo[1,2-a]pyridin-3-yl)pyrimidin-4-yl)piperazin-1-yl)(4-methyl-1,2,5-oxadiazol-3-yl)methanone] | 10 to 100
Cc1noc(C)c1C(=O)N1CCN(c2ccnc(-c3cnc4ccc(C(F)(F)F)cn34)n2)CC1c1cn[nH]c1 (centres unmarked) [I-519, (2-(1H-pyrazol-4-yl)-4-(2-(6-(trifluoromethyl)imidazo[1,2-a]pyridin-3-yl)pyrimidin-4-yl)piperazin-1-yl)(3,5-dimethylisoxazol-4-yl)methanone] | 100 to 1000
FC(F)(F)c1ccc2ncc(-c3ccnc(N4CCN(C[C@H]5CCCOC5)[C@@H](c5cn[nH]c5)C4)n3)n2c1 [I-542, 3-(2-((S)-3-(1H-pyrazol-4-yl)-4-(((R)-tetrahydro-2H-pyran-3-yl)methyl)piperazin-1-yl)pyrimidin-4-yl)-6-(trifluoromethyl)imidazo[1,2-a]pyridine] | < 10
Cc1oncc1C(=O)N1CCN(c2ccnc(-c3cnc4ccc(C(F)(F)F)cn34)n2)C[C@@H]1c1cn[nH]c1 [I-549, (S)-(2-(1H-pyrazol-4-yl)-4-(2-(6-(trifluoromethyl)imidazo[1,2-a]pyridin-3-yl)pyrimidin-4-yl)piperazin-1-yl)(5-methylisoxazol-4-yl)methanone] | 100 to 1000
Cc1oncc1C(=O)N1CCN(c2ccnc(-c3cnc4ccc(C(F)(F)F)cn34)n2)C[C@H]1c1cn[nH]c1 [I-550, (R)-(2-(1H-pyrazol-4-yl)-4-(2-(6-(trifluoromethyl)imidazo[1,2-a]pyridin-3-yl)pyrimidin-4-yl)piperazin-1-yl)(5-methylisoxazol-4-yl)methanone] | 100 to 1000

The compounds below were run against intracellular GCN2 (phosphorylation of the GCN2 substrate eIF2α) (Homo sapiens (Human), UniProt Q9P2K8) (assay: GCN2 Cellular Inhibition Assay (AlphaScreen SureFire P-eIF2α Ser51, borrelidin-treated U2OS cells)). Conditions: 10 μM borrelidin, 1 h, phosphorylated eIF2α Ser51, read-out: GCN2 Biomarker (IC50).
Format: cell-based
Method: Compounds can be screened for their ability to inhibit intracellular GCN2 using an AlphaScreen assay (Perkin Elmer) to detect phosphorylation of the GCN2 substrate eIF2α in borrelidin-treated cells. U2OS cells are plated at 5,000 cells per well in 384-well white polystyrene plates (Corning 3570) in McCoy's 5A media (GIBCO 26600-023) supplemented with 10% foetal bovine serum (SAFC 12103C), Penicillin/Streptomycin solution diluted 1:100 (Sigma P0781), and 2 mM L-glutamine (Sigma G7513), and allowed to adhere overnight at 37° C. in 5% CO2. Compounds are then added to the cell media from a final concentration of 40 μM in 4-fold serial dilutions. Borrelidin (FluoroChem M01440) is immediately added to the wells to a final concentration of 10 μM and the cells are incubated for 1 h at 37° C. in 5% CO2. After 1 h of treatment with borrelidin, the media is removed, and the cells are lysed with lysis buffer (TGR BioSceinces TGRLB) at ambient temperature.
An AlphaScreen SureFire P-eIF2α (Ser51) assay kit (Perkin Elmer TGREIF2S) was used to measure levels of eIF2α phosphorylated on Serine 51. Anti-phosphorylated eIF2α Ser51 antibody-linked acceptor beads (TGR BioScience 6760617) are added to the cell homogenate (diluted 1:250 into a mixture of activation (TGR BioScience TGRAB) and reaction buffer (TGR BioScience TGREIF2S) prepared immediately before use). The plate is then incubated for 2 h at ambient temperature in the dark. Anti-eIF2α antibody-linked donor beads (TGR BioScience 6760617) were then added (diluted 1:100 in dilution buffer (TGR BioScience TGRDB) prepared immediately before use). The plate is then incubated overnight at ambient temperature in the dark.
Plates are analyzed on an Alpha Technology-compatible PHERAstar FS plate reader (BMG Labtech Version 1.14) to quantify phosphorylated eIF2α Ser51 levels. The percentage inhibition of phosphorylated eIF2α is calculated by comparison to control wells stimulated with borrelidin alone.

Sequence of intracellular GCN2 (phosphorylation of the GCN2 substrate eIF2α) (Q9P2K8 whole entry): as above

IC50 [nM] | SMILES
< 500 | Cc1[nH]ncc1[C@H]1CN(c2nccc(-c3cnc4ccc(C(F)(F)F)cn34)n2)C[C@@H](C)O1 (relative stereo) [I-115, cis-2-Methyl-6-(3-methyl-1H-pyrazol-4-yl)-4-{4-[6-(trifluoromethyl)imidazo[1,2-a]pyridin-3-yl]pyrimidin-2-yl}morpholine]
< 500 | C[C@@H]1CN(c2nccc(-c3cnc4ccc(C(F)(F)F)cn34)n2)C[C@H](c2cn[nH]c2)O1 (relative stereo) [I-117, cis-2-Methyl-6-(1H-pyrazol-4-yl)-4-{4-[6-(trifluoromethyl)imidazo[1,2-a]pyridin-3-yl]pyrimidin-2-yl}morpholine]
< 500 | FC(F)(F)c1ccc2ncc(-c3nccc(N4CCOC(c5cn[nH]c5)C4)n3)n2c1 (centres unmarked) [I-2, 1H-Pyrazol-4-yl-4-[2-[6-(trifluoromethyl)imidazo[1,2-a]pyridin-3-yl]pyrimidin-4-yl]morpholine]
< 500 | FC(F)(F)c1ccc2ncc(-c3nccc(N4CCOC(c5cn[nH]c5)C4)n3)n2c1 (centres unmarked) [I-3, 1H-pyrazol-4-yl-4-[2-[6-(trifluoromethyl)imidazo[1,2-a]pyridin-3-yl]pyrimidin-4-yl]morpholine]
< 500 | C[C@@H]1CN(c2nccc(-c3cnc4ccc(C(F)(F)F)cn34)n2)C[C@H](c2cn[nH]c2)O1 [I-118]
< 500 | Cc1n[nH]cc1[C@H]1CN(c2ccnc(-c3cnc4ccc(C(F)(F)F)cn34)n2)C[C@@H](C)O1 [I-120]

Further lines, the compound ahead of its results:

SMILES | IC50 [nM]
C[C@H]1C[C@@H](c2cn[nH]c2)CN(c2nccc(-c3cnc4ccc(C(F)(F)F)cn34)n2)C1 (mixture of isomers) [I-114, 2-[3-methyl-5-(1H-pyrazol-4-yl)piperidin-1-yl]-4-[6-(trifluoromethyl)imidazo[1,2-a]pyridin-3-yl]pyrimidine] | < 500
FC(F)(F)c1ccc2ncc(-c3ccnc(N4CCOC(c5cn[nH]c5)C4)n3)n2c1 (centres unmarked) [I-10, 2-(1H-pyrazol-4-yl)-4-(4-(6-(trifluoromethyl)imidazo[1,2-a]pyridin-3-yl)pyrimidin-2-yl)morpholine] | < 500
FC(F)(F)c1ccc2ncc(-c3ccnc(N4CCOC(c5cn[nH]c5)C4)n3)n2c1 (centres unmarked) [I-44, 2-(1H-Pyrazol-4-yl)-4-[4-[6-(trifluoromethyl)imidazo[1,2-a]pyridin-3-yl]pyrimidin-2-yl]morpholine] | < 500
FC(F)(F)c1ccc2ncc(-c3nccc(N4CCN(C[C@@H]5CC56CC6)[C@H](c5cn[nH]c5)C4)n3)n2c1 [I-552, 3-(4-((R)-3-(1H-pyrazol-4-yl)-4-(((R)-spiro[2.2]pentan-1-yl)methyl)piperazin-1-yl)pyrimidin-2-yl)-6-(trifluoromethyl)imidazo[1,2-a]pyridine] | < 500
FC(F)(F)c1ccc2ncc(-c3nccc(N4CCN(C[C@H]5CC56CC6)[C@@H](c5cn[nH]c5)C4)n3)n2c1 [I-553, 3-(4-((S)-3-(1H-pyrazol-4-yl)-4-(((S)-spiro[2.2]pentan-1-yl)methyl)piperazin-1-yl)pyrimidin-2-yl)-6-(trifluoromethyl)imidazo[1,2-a]pyridine] | < 500
